The subject of this assay is HCT116 cells. As to the kind of experiment: Inhibition of cell proliferation of HCT116 cells (14C-thymidine incorporation, 96 hours). In kind it is cell-based. The conditions noted are these: Homo sapiens, HCT-116, 14C-thymidine incorporation after 96 hours. The protocol:
The products according to the invention have been the subject of pharmacological trials which make it possible to determine their antiproliferative activity. It was determined by measuring the inhibition of cell proliferation of HCT116 cells. The cells are inoculated in a cell culture medium at a concentration of 10 000 cells per well, in 0.17 ml of medium, and 20 μl of test product, at various concentrations, and 10 μl of Thymidine [methyl-14C] (100 μCi/ml—specific activity 47.90 mCi/mmol; NEN Technologies reference NEC568 batch 3550-001) are added, and then the cells are incubated at 37° C. and 5% CO2.
Medium used for the culture of HCT116 cells: DMEM medium 2 mM L-glutamine, 200 IU/ml penicillin, 200 μg/ml streptomycin and 10% (V/V) fetal calf serum (Life Technologies).
After 96 hours, the incorporation of ^14C-thymidine is counted in a liquid scintillation counter 1450 Microbeta Wallac Trilux. The results R are expressed in cpm (counts per minute) and converted to percentage of growth inhibition GI % by first subtracting the mean of the number of cpm of the wells without cells B and then by dividing by the number of cpm of the wells of the untreated cells C comprising 20 μl of medium for dilution of the product containing 1% of ethanol (GI %=(R−B)×100/C %).
The IC50 values are calculated with the aid of the equation 205 of the XLFit software (IDBS company, UK) by nonlinear regression analysis using the Marquardt algorithm (Donald W. MARQUARDT, J. Soc. industry appl., vol. 11, No. 2, June, 1963).
(Incorporation of labelled thymidine or its analogues reports DNA synthesis.)
In the case of `C[C@@H]1CC[C@H]2[C@@H](C)[C@](OCCSCCO[C@@]3(C(F)(F)F)O[C@@H]4O[C@]5(C)CC[C@H]6[C@H](C)CC[C@@H]([C@H]3C)[C@@]46OO5)(C(F)(F)F)O[C@@H]3O[C@@]4(C)CC[C@@H]1[C@]32OO4` [EX1], the IC50 came to 47 nM.

On to `C[C@@H]1CC[C@H]2[C@@H](C)[C@](OCC[S+]([O-])CCO[C@@]3(C(F)(F)F)O[C@@H]4O[C@]5(C)CC[C@H]6[C@H](C)CC[C@@H]([C@H]3C)[C@@]46OO5)(C(F)(F)F)O[C@@H]3O[C@@]4(C)CC[C@@H]1[C@]32OO4` [EX2], for which it took 23 nM to reach half-maximal inhibition (IC50).

For the compound `C[C@@H]1CC[C@H]2[C@@H](C)[C@](OCCS(=O)(=O)CCO[C@@]3(C(F)(F)F)O[C@@H]4O[C@]5(C)CC[C@H]6[C@H](C)CC[C@@H]([C@H]3C)[C@@]46OO5)(C(F)(F)F)O[C@@H]3O[C@@]4(C)CC[C@@H]1[C@]32OO4` [EX3, (3S,5aS,6R,8aS,9R,10R,12R,12aR,3′S,5′aS,6′R,8′aS,-9′R,10′R,12′R,12′aR)-10,10′-[sulfonylbis(2,1-ethanediyloxy)]bis[decahydro-3,6,9-trimethyl-10-tri-fluoromethyl)-3,12-epoxy-12H-pyrano[4,3-j]-1,2-benzodioxepine], half-maximal inhibition (IC50) was put at 21 nM.

Compound `C[C@@H]1CC[C@H]2[C@@H](C)[C@](OCCN(C)CCO[C@@]3(C(F)(F)F)O[C@@H]4O[C@@]5(C)CC[C@H]6[C@H](C)CC[C@@H]([C@H]3C)[C@@]46OO5)(C(F)(F)F)O[C@@H]3O[C@@]4(C)CC[C@@H]1[C@]32OO4` [EX8, 2-[[(3R,5aS,6R,8aS,9R,10R,12R,12aR)-decahydro-3,6,9-trimethyl-10-(trifluoromethyl)-3,12-epoxy-12H-pyrano[4,3-j]-1,2-benzodioxepin-10-yl]oxy]-N-[2-[[(3R,5aS,6R,8aS,9R,10R,12R,12aR)-decahydro-3,6,9-trimethyl-10-(trifluoromethyl)-3,12-epoxy-12H-pyrano[4,3-j]-1,2-benzodioxepin-10-yl]oxy]ethyl]-N-methylethanamine] returned a 50% inhibitory concentration (IC50) of 30 nM.

The term IC50 denotes the concentration that inhibits the measured activity by half. Read a high IC50 as a need for much substance.

The values above are taken from patent publication US8314142B2, “Dimers of artemisinin derivatives, preparation thereof and therapeutic use thereof” (Sanofi, priority 2006, dated 2012).
